Data reported in patent publication US20070281988A1, “Combination Therapy for Vascular Complications Associated with Hyperglycemia” (priority 2004, published 2007).

Key:
Type in all cases: in vivo, rat
sciatic nerve = assay: Motor nerve conduction velocity (sciatic nerve) in streptozotocin-diabetic rats; conditions: STZ-diabetic rats, lovastatin 5.5 mg/kg; for MNCV (motor nerve conduction velocity): 2-week treatment after 6 weeks untreated diabetes, ruboxistaurin 0.25 mg/kg, mean ± SEM; for correction of diabetic deficit in motor conduction velocity: individual doses: ruboxistaurin 0.25 mg/kg
Method: (§1) Diabetes is induced in mature (19 week old) male Sprague-Dawley by streptozotocin injection (40-45 mg/kg i.p.). The diabetic state is monitored weekly using commercially available test strips for blood (tail vein) and urine glucose levels. Body weight is also be monitored daily. The criteria for the diabetic state are; blood glucose>19.9 mM, glycosuria, and no evidence of body weight gain. After 6 weeks of untreated diabetes, drugs are administered for a 2-week period.
(§2) In final experiments, rats are anaesthetized with thiobutabarbital (50-100 mg kg^−1 i.p.). The trachea is cannulated for artificial respiration. As described in Cameron N E, Cotter M A, Robertson S (1989), “The effect of aldose reductase inhibition on the pattern of nerve conduction deficits in diabetic rats.” Q. J. Exp. Physiol. 74:917-926; and Cameron N E, Cotter M A, Robertson S (1991), “Effects of essential fatty acid supplementation on peripheral nerve and skeletal muscle function and capillarization in streptozotocin diabetic rats.” Diabetes 40:532-539, the sciatic nerve is exposed between the sciatic notch and knee. Bipolar stimulating electrodes are placed close to the nerve at the notch and knee. A concentric bipolar electrode is inserted into tibialis anterior muscle to monitor evoked electromyographic (EMG) activity. Potentials from each stimulating site are averaged 8 times. Motor conduction velocity is calculated by dividing the distance between stimulating electrodes by the average latency difference between the onset of EMG potentials evoked from the 2 sites. Nerve temperature is monitored using a thermocouple probe, and maintained in the range 36-38° C. by radiant heat. Body temperature is also maintained around 37° C. using a heated blanket. Sensory conduction velocity is measured for sensory saphenous nerve between groin and mid calf in a similar fashion, except that direct nerve evoked potentials are recorded at the ankle using a unipolar platinum hook electrode.

sensory saphenous nerve = assay: Sensory nerve conduction velocity (saphenous nerve) in streptozotocin-diabetic rats; conditions: STZ-diabetic rats, lovastatin 5.5 mg/kg; for SNCV (sensory nerve conduction velocity): 2-week treatment after 6 weeks untreated diabetes, ruboxistaurin 0.25 mg/kg, mean ± SEM; for correction of diabetic deficit in sensory conduction velocity: individual doses: ruboxistaurin 0.25 mg/kg
Method: as §1, §2

[1] = system: sciatic nerve endoneurium; assay: Sciatic endoneurial blood flow by microelectrode polarography and hydrogen clearance in streptozotocin-diabetic rats; conditions: STZ-diabetic rats, ruboxistaurin 0.25 mg/kg, lovastatin 5.5 mg/kg, mean ± SEM; for Blood Flow (sciatic endoneurial nutritive): 2-week treatment after 6 weeks untreated diabetes; for Vascular Conductance: blood flow divided by mean arterial blood pressure, 2-week treatment
Method: as §1
Sciatic endoneurial blood flow is estimated in the limb contralateral to that for conduction velocity measurements by microelectrode polarography and hydrogen clearance. Day T J, Lagerlund T D, Low P A (1989), “Analysis of H2 clearance curves used to measure blood flow in rat sciatic nerve,” J Physiol 414:35-54; Cameron N E, Cotter M A, Low P A (1991), “Nerve blood flow in early experimental diabetes in rats: relation to conduction deficits.” Am J Physiol 261:E1-E8; Cameron N E, Cotter M A, Hohman T C (1996), “Interactions between essential fatty acid, prostanoid, polyol pathway and nitric oxide mechanisms in the neurovascular deficit of diabetic rats,” Diabetologia 39:172-182. Rats are artificially ventilated. The carotid artery is cannulated to monitor blood pressure. The level of anaesthesia is monitored by observing any reaction of blood pressure to manipulation, and supplementary thiobutabarbital anaesthetic is given as necessary. The sciatic nerve is exposed and the skin around the incision sutured to a metal ring to form a pool filled with mineral oil at 37° C. During recordings, pool temperature is maintained at 35-37° C. by radiant heat. A glass-insulated platinum microelectrode, polarized at 250 mV with respect to a subcutaneous reference electrode, is inserted into the sciatic nerve endoneurium between the sciatic notch and the nerve trifurcation above the knee. 10% H2 would be added to the inspired gas, the proportions of O2 and N2 being adjusted to 20% and 70% respectively. When the H2 current recorded by the electrode has stabilized, indicating equilibrium with arterial blood, the H2 supply is shut off and N2 delivery increased appropriately. H2 clearance is recorded until a stable baseline is reached, which is defined as no systematic decline in electrode current over 5 min. This procedure is then repeated at another nerve site. […] Assuming a tissue density of 1, nutritive blood flow would be calculated as d×100 (ml min^−1 100 g^−1). Vascular conductance is calculated by dividing blood flow by the mean arterial blood pressure over the recording period for that particular clearance curve. […]

SMILES: CC[C@H](C)C(=O)O[C@H]1C[C@@H](C)C=C2C=C[C@H](C)[C@H](CC[C@@H]3C[C@@H](O)CC(=O)O3)[C@H]21 [LOV, lovastatin]
- MNCV (motor nerve conduction velocity) (sciatic nerve): 54.0 ± 0.4 m/s
- correction of diabetic deficit in motor conduction velocity (sciatic nerve): ~20%
- SNCV (sensory nerve conduction velocity) (sensory saphenous nerve): 54.6 ± 0.4 m/s
- correction of diabetic deficit in sensory conduction velocity (sensory saphenous nerve): ~20%
- Blood Flow (sciatic endoneurial nutritive) [1]: 10.4 ± 0.6 ml/min/100 g
- Vascular Conductance [1]: 0.091 ± 0.006 ml/min/100 g/mm Hg

SMILES: CN(C)C[C@@H]1CCn2cc(c3ccccc32)C2=C(C(=O)NC2=O)c2cn(c3ccccc23)CCO1 [LY, (S)-9-((Dimethylamino)methyl)-6,7,10,11-tetrahydro-9H,18H-5,21:12,17-dimethenodibenzo(e,k)pyrrolo(3,4-h)(1,4,13)oxadiaza-cyclohexadecine-18,20(19H)-dione]
- MNCV (motor nerve conduction velocity) (sciatic nerve): 53.5 ± 0.3 m/s
- correction of diabetic deficit in motor conduction velocity (sciatic nerve): ~20%
- SNCV (sensory nerve conduction velocity) (sensory saphenous nerve): 54.8 ± 0.3 m/s
- correction of diabetic deficit in sensory conduction velocity (sensory saphenous nerve): ~20%
- Blood Flow (sciatic endoneurial nutritive) [1]: 10.7 ± 0.4 ml/min/100 g
- Vascular Conductance [1]: 0.101 ± 0.008 ml/min/100 g/mm Hg
